According to patent US12295937B2, “Psychoactive medicines and their use for treating psychiatric and neurological conditions and disorders” (Transcend Therapeutics, Inc., priority 2021, dated 2025):
Like-named read-outs stand apart in the source and are kept apart here.

How the values were obtained:
Open field test (OFT) = format: in vivo, rat; details: 5 or 15 mg/kg IP, 30 minutes before testing
Procedure: Method: Consecutive beam breaks and/or video-tracking of time spent in the center versus periphery of the open field are measured. Also measured are parameters such as distance traveled and ambulatory activity (horizontal and vertical) for the duration of the test session.
The open field test (OFT) capitalizes on a rodent's innate fear of open spaces to assess anxiety-like behavior. More time spent in the center of an open field reflects an anxiolytic (anti-anxiety) effect.
Locomotor activity was also measured in the OFT.
To investigate whether MBDB has an anti-anxiety (anxiolytic) effect, rats were dosed with MBDB (0.5-30 mg/kg, IP) or vehicle (saline) and 30-minutes later were tested in the open field for 30 minutes. This anxiety test capitalizes on a rodents' innate fear of wide-open spaces and propensity to hug the walls when placed into the open field. Therefore, a drug that increases the time spent in the center of the open field has anxiolytic activity and predicts utility for treating anxiety in humans.

168 GPCRs [1] = target: T1, 168 GPCRs (Homo sapiens, UniProt P32239); experiment: β-arrestin GPCR screen (PathHunter / GPCRmax), agonist mode; format: cell-based; details: CCKBR, 1 uM
T1 construct: host or cells: PathHunter cell lines
Procedure: (§1) For agonist determination, cells were incubated with sample to induce response. […] Vehicle concentration was 1%.

168 GPCRs [2] = target: T2, 168 GPCRs (Homo sapiens, UniProt P32249); experiment: as above; format: cell-based; details: EBI2, 1 uM
T2 construct: host or cells: PathHunter cell lines
Procedure: as §1

168 GPCRs [3] = target: T3, 168 GPCRs (Homo sapiens, UniProt P34998); experiment: as above; format: cell-based; details: CRHR1, 1 uM
T3 construct: host or cells: PathHunter cell lines
Procedure: as §1

168 GPCRs [4] = target: T4, 168 GPCRs (Homo sapiens, UniProt P35408); experiment: as above; format: cell-based; details: PTGER4, 1 uM
T4 construct: host or cells: PathHunter cell lines
Procedure: as §1

168 GPCRs [5] = target: T5, 168 GPCRs (Homo sapiens, UniProt P49238); experiment: as above; format: cell-based; details: CX3CR1, 1 uM
T5 construct: host or cells: PathHunter cell lines
Procedure: as §1

168 GPCRs [6] = target: T6, 168 GPCRs (Homo sapiens, UniProt Q99788); experiment: as above; format: cell-based; details: CMKLR1, 1 uM
T6 construct: host or cells: PathHunter cell lines
Procedure: as §1

168 GPCRs [7] = experiment: as above; format: cell-based; details: CCR, 10 uM
Procedure: as §1

[8] = target: serotonin transporter (SERT) (Rattus norvegicus, UniProt P31652); experiment: [3H]5HT uptake saturation in rat brain synaptosomes with or without methylone; format: biochemical; details: Kd right shifted, no decrease in Bmax
[9] = target: vesicular monoamine transporter 2 (VMAT2) (Homo sapiens, UniProt Q05940); details: cited from earlier work
[10] = cited from earlier work
DAT = DAT (Rattus norvegicus, UniProt P23977); experiment: [3H]DA uptake inhibition in rat brain synaptosomes; details: read-out: Reuptake inhibition: IC50; rat brain synaptosomes
SERT = SERT (Rattus norvegicus, UniProt P31652); experiment: [3H]5-HT uptake inhibition in rat brain synaptosomes; details: read-out: Reuptake inhibition: IC50; rat brain synaptosomes
SERT, sequence (P31652 whole entry): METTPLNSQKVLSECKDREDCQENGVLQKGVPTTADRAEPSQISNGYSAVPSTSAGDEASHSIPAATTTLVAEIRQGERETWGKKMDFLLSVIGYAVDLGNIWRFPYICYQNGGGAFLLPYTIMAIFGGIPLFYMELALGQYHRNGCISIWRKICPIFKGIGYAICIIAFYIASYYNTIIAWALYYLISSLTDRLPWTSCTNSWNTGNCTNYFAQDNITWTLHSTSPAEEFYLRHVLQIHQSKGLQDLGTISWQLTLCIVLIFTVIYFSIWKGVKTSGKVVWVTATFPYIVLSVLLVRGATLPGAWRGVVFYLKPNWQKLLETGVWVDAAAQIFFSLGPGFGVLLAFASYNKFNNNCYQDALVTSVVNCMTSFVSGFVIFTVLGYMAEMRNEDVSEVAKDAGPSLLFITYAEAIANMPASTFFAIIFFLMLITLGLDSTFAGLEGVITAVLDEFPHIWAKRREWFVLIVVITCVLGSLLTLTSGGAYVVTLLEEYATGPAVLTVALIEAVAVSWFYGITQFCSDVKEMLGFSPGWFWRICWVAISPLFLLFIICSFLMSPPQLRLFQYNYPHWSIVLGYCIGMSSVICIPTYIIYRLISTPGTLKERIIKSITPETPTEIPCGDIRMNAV

T5 sequence (P49238 whole entry): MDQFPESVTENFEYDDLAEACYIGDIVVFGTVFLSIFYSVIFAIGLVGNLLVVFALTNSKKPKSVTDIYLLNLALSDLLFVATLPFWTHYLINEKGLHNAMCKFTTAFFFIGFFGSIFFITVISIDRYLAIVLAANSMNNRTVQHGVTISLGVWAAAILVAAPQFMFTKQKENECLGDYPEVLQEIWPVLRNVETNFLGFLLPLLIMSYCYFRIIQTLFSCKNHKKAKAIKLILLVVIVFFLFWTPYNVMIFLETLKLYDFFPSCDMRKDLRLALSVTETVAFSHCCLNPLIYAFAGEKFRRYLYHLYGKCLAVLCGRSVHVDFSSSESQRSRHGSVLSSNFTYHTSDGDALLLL
T6 sequence (Q99788 whole entry): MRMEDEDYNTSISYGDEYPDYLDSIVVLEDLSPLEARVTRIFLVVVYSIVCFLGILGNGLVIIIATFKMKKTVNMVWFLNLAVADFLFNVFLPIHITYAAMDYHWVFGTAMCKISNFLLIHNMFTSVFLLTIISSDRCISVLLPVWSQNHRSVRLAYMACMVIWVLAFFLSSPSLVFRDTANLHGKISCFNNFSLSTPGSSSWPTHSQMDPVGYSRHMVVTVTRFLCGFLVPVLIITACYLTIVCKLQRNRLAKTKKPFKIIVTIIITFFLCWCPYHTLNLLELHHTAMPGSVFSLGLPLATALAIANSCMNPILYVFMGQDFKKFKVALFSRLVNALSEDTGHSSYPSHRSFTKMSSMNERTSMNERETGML
T2 sequence (P32249 whole entry): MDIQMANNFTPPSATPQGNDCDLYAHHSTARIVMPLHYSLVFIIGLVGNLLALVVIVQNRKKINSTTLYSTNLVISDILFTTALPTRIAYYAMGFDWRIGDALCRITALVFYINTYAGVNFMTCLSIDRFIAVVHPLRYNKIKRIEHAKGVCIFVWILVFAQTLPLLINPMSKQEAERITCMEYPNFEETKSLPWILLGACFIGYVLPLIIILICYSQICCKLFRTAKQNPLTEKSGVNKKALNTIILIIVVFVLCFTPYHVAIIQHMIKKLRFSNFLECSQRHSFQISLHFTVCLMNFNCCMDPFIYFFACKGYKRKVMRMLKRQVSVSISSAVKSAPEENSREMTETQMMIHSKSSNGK
serotonin transporter (SERT), sequence (P31652 whole entry): as the sequence (P31652 whole entry) above
T3 sequence (P34998 24-415): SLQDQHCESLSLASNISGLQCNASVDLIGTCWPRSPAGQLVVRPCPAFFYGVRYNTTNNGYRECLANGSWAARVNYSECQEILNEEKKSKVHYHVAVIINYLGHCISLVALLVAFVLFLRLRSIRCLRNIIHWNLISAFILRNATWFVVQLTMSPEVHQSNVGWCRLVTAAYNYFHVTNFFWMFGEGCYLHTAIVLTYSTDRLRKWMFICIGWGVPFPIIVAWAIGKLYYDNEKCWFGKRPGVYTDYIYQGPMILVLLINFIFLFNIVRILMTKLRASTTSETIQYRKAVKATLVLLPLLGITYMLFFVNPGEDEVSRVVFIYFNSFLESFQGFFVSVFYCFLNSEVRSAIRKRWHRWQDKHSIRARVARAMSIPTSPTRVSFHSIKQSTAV
DAT, sequence (P23977 whole entry): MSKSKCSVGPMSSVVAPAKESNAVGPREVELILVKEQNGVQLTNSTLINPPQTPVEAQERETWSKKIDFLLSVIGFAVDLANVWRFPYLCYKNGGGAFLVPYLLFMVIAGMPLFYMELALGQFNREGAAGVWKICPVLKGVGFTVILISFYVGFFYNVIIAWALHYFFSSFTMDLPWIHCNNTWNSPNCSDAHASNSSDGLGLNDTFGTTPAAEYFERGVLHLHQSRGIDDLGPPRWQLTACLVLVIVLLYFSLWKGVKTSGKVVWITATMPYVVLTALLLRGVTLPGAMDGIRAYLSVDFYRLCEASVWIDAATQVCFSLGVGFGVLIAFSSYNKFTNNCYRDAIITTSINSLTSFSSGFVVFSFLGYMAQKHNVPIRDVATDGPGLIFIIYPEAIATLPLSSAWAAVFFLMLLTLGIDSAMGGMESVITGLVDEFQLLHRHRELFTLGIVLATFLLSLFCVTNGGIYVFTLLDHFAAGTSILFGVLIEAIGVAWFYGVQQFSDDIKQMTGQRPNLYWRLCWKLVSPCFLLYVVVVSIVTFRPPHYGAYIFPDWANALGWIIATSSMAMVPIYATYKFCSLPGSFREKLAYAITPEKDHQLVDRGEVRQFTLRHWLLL
T4 sequence (P35408 whole entry): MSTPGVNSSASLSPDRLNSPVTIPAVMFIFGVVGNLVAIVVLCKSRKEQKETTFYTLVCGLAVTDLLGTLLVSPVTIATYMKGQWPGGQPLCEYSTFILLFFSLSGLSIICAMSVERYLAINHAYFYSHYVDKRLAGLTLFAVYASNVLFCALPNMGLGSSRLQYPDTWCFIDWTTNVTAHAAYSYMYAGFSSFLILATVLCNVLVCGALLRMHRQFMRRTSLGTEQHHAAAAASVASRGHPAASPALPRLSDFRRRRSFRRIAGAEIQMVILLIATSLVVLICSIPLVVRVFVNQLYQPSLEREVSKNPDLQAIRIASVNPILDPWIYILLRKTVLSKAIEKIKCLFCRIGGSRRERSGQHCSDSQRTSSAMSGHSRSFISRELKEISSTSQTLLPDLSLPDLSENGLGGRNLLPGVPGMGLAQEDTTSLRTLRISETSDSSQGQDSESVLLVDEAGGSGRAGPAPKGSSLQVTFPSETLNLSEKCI
vesicular monoamine transporter 2 (VMAT2), sequence (Q05940 whole entry, species assumed): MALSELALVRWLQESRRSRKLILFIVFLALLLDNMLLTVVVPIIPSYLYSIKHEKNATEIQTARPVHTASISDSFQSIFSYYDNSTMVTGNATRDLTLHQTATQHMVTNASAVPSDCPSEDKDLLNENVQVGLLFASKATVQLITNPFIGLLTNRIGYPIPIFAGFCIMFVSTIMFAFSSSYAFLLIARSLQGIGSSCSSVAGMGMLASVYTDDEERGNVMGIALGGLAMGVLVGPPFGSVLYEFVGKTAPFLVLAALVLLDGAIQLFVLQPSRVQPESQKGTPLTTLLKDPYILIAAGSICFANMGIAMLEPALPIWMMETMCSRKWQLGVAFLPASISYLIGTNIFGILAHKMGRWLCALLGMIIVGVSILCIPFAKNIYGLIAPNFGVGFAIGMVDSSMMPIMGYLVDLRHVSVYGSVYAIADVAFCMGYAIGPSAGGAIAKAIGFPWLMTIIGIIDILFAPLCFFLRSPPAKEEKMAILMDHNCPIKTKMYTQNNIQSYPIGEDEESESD
T1 sequence (P32239 whole entry): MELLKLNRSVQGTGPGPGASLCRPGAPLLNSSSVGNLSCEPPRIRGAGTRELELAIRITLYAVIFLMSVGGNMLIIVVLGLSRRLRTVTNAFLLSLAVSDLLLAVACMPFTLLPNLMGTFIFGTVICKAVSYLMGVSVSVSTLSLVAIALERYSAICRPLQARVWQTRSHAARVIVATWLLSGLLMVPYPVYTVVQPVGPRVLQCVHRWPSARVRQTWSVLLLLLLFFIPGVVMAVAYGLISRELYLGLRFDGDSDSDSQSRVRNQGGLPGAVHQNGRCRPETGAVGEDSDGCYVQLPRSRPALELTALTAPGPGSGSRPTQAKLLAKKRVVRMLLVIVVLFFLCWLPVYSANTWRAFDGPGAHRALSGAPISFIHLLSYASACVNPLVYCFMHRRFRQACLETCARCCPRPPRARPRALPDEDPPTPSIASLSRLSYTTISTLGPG

## CNC(C)C(=O)c1ccc2c(c1)OCO2 (stereo not drawn) [Methylone, 3,4-methylenedioxy-N-methylcathinone]
Open field test (OFT)
  Time spent in the center of the open field vs. vehicle: significantly increases the time spent in the center of the open field
168 GPCRs [1]
  % Activity: −1%
168 GPCRs [2]
  % Activity: 0.5%
168 GPCRs [3]
  % Activity: 1.4%
168 GPCRs [4]
  % Activity: 2.8%
168 GPCRs [5]
  % Activity: 0%
168 GPCRs [6]
  % Activity: −0.2%
168 GPCRs [7]
  % Activity: 3.6%
[8]
  Type of interaction at the SERT: competitive
[9]
  Affinity for VMAT2, times lower than that of MDMA: about 13 ×
[10]; 50 mg oral, N = 3
  Cmax (geometric mean): 151.2 ng/mL
[10]; 50 mg oral
  AUC10hr (geometric mean): 725 ng·h/mL
  AUC24hr (geometric mean): 988 ng·h/mL
  AUCinf (geometric mean): 1062 ng·h/mL
  Half-life (geometric mean): 6.2 h
  Tmax (median): 1.5 h
[10]; 100 mg oral, N = 6
  Cmax (geometric mean): 283.9 ng/mL
[10]; 100 mg oral
  AUC10hr (geometric mean): 1554 ng·h/mL
  AUC24hr (geometric mean): 2232 ng·h/mL
  AUCinf (geometric mean): 2410 ng·h/mL
  Half-life (geometric mean): 6.0 h
  Tmax (median): 2.5 h
[10]; 150 mg oral, N = 5
  Cmax (geometric mean): 340.2 ng/mL
[10]; 150 mg oral
  AUC10hr (geometric mean): 2153 ng·h/mL
  AUC24hr (geometric mean): 3165 ng·h/mL
  AUCinf (geometric mean): 3509 ng·h/mL
  Half-life (geometric mean): 6.7 h
[10]; 200 mg oral, N = 7
  Cmax (geometric mean): 594.2 ng/mL
[10]; 200 mg oral
  AUC10hr (geometric mean): 3261 ng·h/mL
  AUC24hr (geometric mean): 4676 ng·h/mL
  AUCinf (geometric mean): 5116 ng·h/mL
  Half-life (geometric mean): 6.5 h
[10]; oral 50 mg to 200 mg
  Time to reach maximum concentrations (Tmax): 1 to 2 h
  half-life: 6 to 7 h
DAT
  IC50: 2.3 µM
SERT
  IC50: 0.43 µM
